Columns and labels:
HeLa = assay: cells; type: functional, cell-based; conditions: Homo sapiens, 48 h
Description: Growth inhibition of human HeLa cells after 48 hrs by MTT assay

MCF7 = assay: cells; type: functional, cell-based; conditions: Homo sapiens, MCF7, 48 h
Description: Growth inhibition of human MCF7 cells after 48 hrs by MTT assay

MDA-MB-231 = assay: cells; type: functional, cell-based; conditions: Homo sapiens, MDA-MB-231, 48 h
Description: Growth inhibition of human MDA-MB-231 cells after 48 hrs by MTT assay

Histone deacetylase = assay: Inhibition of HDAC in human HeLa cell nuclear extracts using Color de LysTM after 30 mins; type: protein assay

IC50 (HeLa) [µM] | IC50 (MCF7) [µM] | IC50 (MDA-MB-231) [µM] | IC50 (Histone deacetylase) [µM] | Compound
84.3 | 92.1 | > 100 | 7.43 | COc1cc(/C=C/C(=O)Nc2ccc(C)cc2N)ccc1OCC(=O)Nc1cc(Br)cc(C(F)(F)F)c1
– | – | – | 49.3 | COc1cc(/C=C/C(=O)NO)ccc1OCC(=O)Nc1ccc(F)c(Cl)c1
– | – | – | 12.5 | COc1cc(/C=C/C(=O)NO)ccc1OCC(=O)Nc1cccc(C(F)(F)F)c1
– | – | – | 43 | COc1cc(/C=C/C(=O)NO)ccc1OCC(=O)Nc1ccc(Cl)c(Cl)c1
– | – | – | 10.8 | COc1ccc(NC(=O)COc2ccc(/C=C/C(=O)NO)cc2OC)cc1
> 100 | 73.6 | 0.76 | 8.43 | COc1cc(/C=C/C(=O)NO)ccc1OCC(=O)Nc1ccc(Br)cc1
11.1 | > 100 | 8.3 | 3.94 | COc1cc(/C=C/C(=O)NO)ccc1OCC(=O)Nc1ccccc1F
34.5 | 39.5 | 1.45 | 9.47 | COc1cc(/C=C/C(=O)NO)ccc1OCC(=O)Nc1cccc(F)c1
– | – | – | 10.5 | COc1cc(/C=C/C(=O)NO)ccc1OCC(=O)Nc1cc(C(F)(F)F)cc(C(F)(F)F)c1
– | – | – | 67.8 | COc1cc(/C=C/C(=O)NO)ccc1OCC(=O)Nc1cc(Br)cc(C(F)(F)F)c1
– | – | – | 11.5 | COc1cc(/C=C/C(=O)Nc2ccccc2N)ccc1OCC(=O)Nc1ccc(F)c(Cl)c1
– | – | – | 49.6 | COc1cc(/C=C/C(=O)Nc2ccccc2N)ccc1OCC(=O)Nc1cccc(C(F)(F)F)c1
72.1 | > 100 | 83.4 | 10.3 | COc1cc(/C=C/C(=O)Nc2ccccc2N)ccc1OCC(=O)Nc1ccc(Cl)c(Cl)c1
> 100 | > 100 | 48.5 | 8.95 | COc1ccc(NC(=O)COc2ccc(/C=C/C(=O)Nc3ccccc3N)cc2OC)cc1
– | – | – | 12.8 | COc1cc(/C=C/C(=O)Nc2ccccc2N)ccc1OCC(=O)Nc1ccc(Br)cc1
– | – | – | 73.7 | COc1cc(/C=C/C(=O)Nc2ccccc2N)ccc1OCC(=O)Nc1ccccc1F
28.1 | > 100 | > 100 | 2.82 | COc1cc(/C=C/C(=O)Nc2ccccc2N)ccc1OCC(=O)Nc1cccc(F)c1
20.8 | 43.1 | 25.3 | 7.8 | COc1cc(/C=C/C(=O)Nc2ccccc2N)ccc1OCC(=O)Nc1cc(C(F)(F)F)cc(C(F)(F)F)c1
– | – | – | 24.2 | COc1cc(/C=C/C(=O)Nc2ccccc2N)ccc1OCC(=O)Nc1cc(Br)cc(C(F)(F)F)c1
– | – | – | 15.4 | COc1cc(/C=C/C(=O)Nc2ccc(C)cc2N)ccc1OCC(=O)Nc1ccc(F)c(Cl)c1
– | – | – | 15.1 | COc1cc(/C=C/C(=O)Nc2ccc(C)cc2N)ccc1OCC(=O)Nc1cccc(C(F)(F)F)c1
– | – | – | 64.5 | COc1cc(/C=C/C(=O)Nc2ccc(C)cc2N)ccc1OCC(=O)Nc1ccc(Cl)c(Cl)c1
– | – | – | 118 | COc1ccc(NC(=O)COc2ccc(/C=C/C(=O)Nc3ccc(C)cc3N)cc2OC)cc1
– | – | – | 16.4 | COc1cc(/C=C/C(=O)Nc2ccc(C)cc2N)ccc1OCC(=O)Nc1ccc(Br)cc1
– | – | – | 11.6 | COc1cc(/C=C/C(=O)Nc2ccc(C)cc2N)ccc1OCC(=O)Nc1ccccc1F
– | – | – | 66.6 | COc1cc(/C=C/C(=O)Nc2ccc(C)cc2N)ccc1OCC(=O)Nc1cccc(F)c1
– | – | – | 71.4 | COc1cc(/C=C/C(=O)Nc2ccc(C)cc2N)ccc1OCC(=O)Nc1cc(C(F)(F)F)cc(C(F)(F)F)c1

From ChEMBL document CHEMBL2439966, “Development of novel ferulic acid derivatives as potent histone deacetylase inhibitors” (Bioorg Med Chem, 2013)
